Measurements taken from ChEMBL document CHEMBL3885861, “Open TG-GATES”.

Species on record: Rattus norvegicus
Test: Open TG-GATES - Regimen: Daily Repeat
Assay type: toxicity, organism-based, Sprague-Dawley
Set-up: regimen Daily Repeat, gender Male, age 6 weeks
Conditions: in vivo, po, 1000 mg/kg, route gavage, dose level High; for Bas / Eos / Fbg / Hb / Ht / Lym / MCH / MCHC / MCV / Mono / Neu / PT / Plat / RBC / Ret / WBC / APTT: tissue Blood; for KIDNEY_L / KIDNEY_R / KIDNEY_TOTAL: tissue Kidney; for LIVER: tissue Liver; for ALP / ALT / AST / BUN / CRE / Ca / DBIL / GLC / IP / K / LDH / Na / PL / RALB / TBIL / TC / TG / TP / gamma-GTP / Cl: tissue Plasma

## CCOc1ccc(NC(C)=O)cc1 [PHENACETIN]
72 h, time 3 day
  TERMINAL_BW: 201.2 g
  Bas: 0%
  Eos: 0.8%
  Fbg: 283.2 mg/dL
  Hb: 12.6 g/dL
  Ht: 37.2%
  Lym: 69.4%
  MCH: 19.9 pg
  MCHC: 33.9%
  MCV: 58.8 fL
  Mono: 3.2%
  Neu: 26%
  PT: 13.3 s
  Plat: 131.8 x10_4/uL
  RBC: 633.4 x10_4/ul
  Ret: 1.5%
  WBC: 108.7 x10_2/uL
  KIDNEY_L: 1 g
  KIDNEY_R: 0.9 g
  KIDNEY_TOTAL: 1.9 g
  LIVER: 11 g
  ALP: 1479.6 IU/L
  ALT: 43.2 IU/L
  AST: 73.6 IU/L
  BUN: 17.8 mg/dL
  CRE: 0.2 mg/dL
  Ca: 11 mg/dL
  DBIL: 0.024 mg/dL
  GLC: 154.6 mg/dL
  IP: 6.3 mg/dL
  K: 4.4 meq/L
  LDH: 77.6 IU/L
  Na: 143.8 meq/L
  PL: 202.4 mg/dL
  RALB: 2.7 g/dL
  TBIL: 0.092 mg/dL
  TC: 111.8 mg/dL
  TG: 87.4 mg/dL
  TP: 5.9 g/dL
  gamma-GTP: 1.4 IU/L
[…], time 7 day
  TERMINAL_BW: 234.8 g
  APTT: 22.5 s
  Bas: 0.4%
  Eos: 0.4%
  Fbg: 319.6 mg/dL
  Ht: 33.4%
  Lym: 62.2%
  MCH: 22.7 pg
  MCHC: 31.2%
  MCV: 72.7 fL
  Mono: 3%
  Neu: 33.4%
  PT: 13.6 s
  Plat: 156.2 x10_4/uL
  RBC: 463.8 x10_4/ul
  Ret: 17.7%
  WBC: 178.5 x10_2/uL
  KIDNEY_L: 1.1 g
  KIDNEY_R: 1.1 g
  KIDNEY_TOTAL: 2.2 g
  LIVER: 11.9 g
  ALP: 1794.2 IU/L
  ALT: 46.4 IU/L
  AST: 73.2 IU/L
  BUN: 16 mg/dL
  CRE: 0.2 mg/dL
  Ca: 11 mg/dL
  Cl: 104.8 meq/L
  DBIL: 0.04 mg/dL
  GLC: 167.4 mg/dL
  IP: 5.9 mg/dL
  K: 4.5 meq/L
  LDH: 81.4 IU/L
  Na: 144 meq/L
  PL: 172.4 mg/dL
  RALB: 2.7 g/dL
  TBIL: 0.2 mg/dL
  TC: 75.6 mg/dL
  TG: 160 mg/dL
  TP: 6 g/dL
  gamma-GTP: 1.2 IU/L
[…], time 14 day
  TERMINAL_BW: 283.3 g
  APTT: 19 s
  Bas: 0.2%
  Eos: 0.8%
  Fbg: 263.6 mg/dL
  Ht: 43.1%
  Lym: 72%
  MCH: 25.1 pg
  MCHC: 32%
  MCV: 78.4 fL
  Mono: 3.2%
  Neu: 23.6%
  PT: 13.7 s
  Plat: 108.2 x10_4/uL
  RBC: 550.4 x10_4/ul
  WBC: 119.8 x10_2/uL
  KIDNEY_L: 1.3 g
  KIDNEY_R: 1.3 g
  KIDNEY_TOTAL: 2.5 g
  LIVER: 13.2 g
  ALP: 1457 IU/L
  ALT: 43.2 IU/L
  AST: 68 IU/L
  CRE: 0.2 mg/dL
  Ca: 10.8 mg/dL
  Cl: 103.8 meq/L
  DBIL: 0.036 mg/dL
  GLC: 168.8 mg/dL
  IP: 6.2 mg/dL
  K: 4.5 meq/L
  LDH: 154 IU/L
  Na: 143.2 meq/L
  PL: 176.6 mg/dL
  RALB: 2.7 g/dL
  TBIL: 0.1 mg/dL
  TC: 81.6 mg/dL
  TG: 171.4 mg/dL
  TP: 5.9 g/dL
  gamma-GTP: 1.4 IU/L
[…], time 28 day
  TERMINAL_BW: 363.6 g
  APTT: 18.1 s
  Bas: 0%
  Eos: 1%
  Fbg: 251.2 mg/dL
  Hb: 13.7 g/dL
  Lym: 66.8%
  MCH: 24.3 pg
  MCHC: 33.3%
  MCV: 72.8 fL
  Mono: 3.2%
  Neu: 28.4%
  Plat: 106.4 x10_4/uL
  RBC: 566.6 x10_4/ul
  Ret: 11.5%
  WBC: 134.5 x10_2/uL
  KIDNEY_L: 1.5 g
  KIDNEY_R: 1.5 g
  KIDNEY_TOTAL: 3 g
  ALP: 1375.4 IU/L
  ALT: 51.4 IU/L
  AST: 72.2 IU/L
  BUN: 21.4 mg/dL
  CRE: 0.3 mg/dL
  Ca: 10.8 mg/dL
  Cl: 102.8 meq/L
  DBIL: 0.038 mg/dL
  GLC: 157 mg/dL
  IP: 6.6 mg/dL
  K: 4.4 meq/L
  LDH: 70.8 IU/L
  Na: 145.2 meq/L
  PL: 171 mg/dL
  RALB: 2.8 g/dL
  TBIL: 0.1 mg/dL
  TC: 81.2 mg/dL
  TG: 125.6 mg/dL
  TP: 6.3 g/dL
  gamma-GTP: 1.2 IU/L
